Assay results from US20260028365A1 (BIOGEN MA INC., priority 2022, published 2026).
Like-named read-outs stand apart in the source and are kept apart here.

What was measured:
JH2 domain of human Tyk2 = JH2 domain of human Tyk2 (Homo sapiens (Human), UniProt P29597); assay: JH2 Biochemical Assay (TR-FRET probe displacement); assay type: binding
JAK2 = JAK2 (Homo sapiens (Human), UniProt O60674); assay: pSTAT5 Cell Assay (MSD, TF1 cells); assay type: cell-based
Procedure, shortened: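 Serum-starved TF1 cells were pretreated with compound for 1 h (10-point four-fold series from 10 μM), then stimulated with 30 ng/mL IL-3 for 15 min. pSTAT5 in lysates was measured by MSD immunoassay. IC50 came from a 4-parameter logistic fit.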

Tyk2 = Tyk2 (Homo sapiens (Human), UniProt P29597); assay: pSTAT4 Cell Assay (MSD, NK92 cells); assay type: cell-based
JAK1 = JAK1 (Homo sapiens (Human), UniProt P23458); assay: pSTAT3 Cell Assay (MSD, TF1 cells); assay type: cell-based
Procedure, shortened: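 Serum-starved TF1 cells with endogenous JAK1/STAT3 were pretreated 1 h with compound in a 10-point four-fold dilution series from 10 μM, then stimulated with 30 ng/mL IL-6 for 15 min. pSTAT3 in lysates was quantified by MSD immunoassay, and IC50 came from 4-parameter logistic fits.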

[1] = TR-FRET probe displacement, JH2 domain of human Tyk2
[2] = JH2 domain of human Tyk2, TR-FRET probe displacement
[3] = TR-FRET probe displacement, JH2 domain

Chain of JAK1 (P23458 whole entry): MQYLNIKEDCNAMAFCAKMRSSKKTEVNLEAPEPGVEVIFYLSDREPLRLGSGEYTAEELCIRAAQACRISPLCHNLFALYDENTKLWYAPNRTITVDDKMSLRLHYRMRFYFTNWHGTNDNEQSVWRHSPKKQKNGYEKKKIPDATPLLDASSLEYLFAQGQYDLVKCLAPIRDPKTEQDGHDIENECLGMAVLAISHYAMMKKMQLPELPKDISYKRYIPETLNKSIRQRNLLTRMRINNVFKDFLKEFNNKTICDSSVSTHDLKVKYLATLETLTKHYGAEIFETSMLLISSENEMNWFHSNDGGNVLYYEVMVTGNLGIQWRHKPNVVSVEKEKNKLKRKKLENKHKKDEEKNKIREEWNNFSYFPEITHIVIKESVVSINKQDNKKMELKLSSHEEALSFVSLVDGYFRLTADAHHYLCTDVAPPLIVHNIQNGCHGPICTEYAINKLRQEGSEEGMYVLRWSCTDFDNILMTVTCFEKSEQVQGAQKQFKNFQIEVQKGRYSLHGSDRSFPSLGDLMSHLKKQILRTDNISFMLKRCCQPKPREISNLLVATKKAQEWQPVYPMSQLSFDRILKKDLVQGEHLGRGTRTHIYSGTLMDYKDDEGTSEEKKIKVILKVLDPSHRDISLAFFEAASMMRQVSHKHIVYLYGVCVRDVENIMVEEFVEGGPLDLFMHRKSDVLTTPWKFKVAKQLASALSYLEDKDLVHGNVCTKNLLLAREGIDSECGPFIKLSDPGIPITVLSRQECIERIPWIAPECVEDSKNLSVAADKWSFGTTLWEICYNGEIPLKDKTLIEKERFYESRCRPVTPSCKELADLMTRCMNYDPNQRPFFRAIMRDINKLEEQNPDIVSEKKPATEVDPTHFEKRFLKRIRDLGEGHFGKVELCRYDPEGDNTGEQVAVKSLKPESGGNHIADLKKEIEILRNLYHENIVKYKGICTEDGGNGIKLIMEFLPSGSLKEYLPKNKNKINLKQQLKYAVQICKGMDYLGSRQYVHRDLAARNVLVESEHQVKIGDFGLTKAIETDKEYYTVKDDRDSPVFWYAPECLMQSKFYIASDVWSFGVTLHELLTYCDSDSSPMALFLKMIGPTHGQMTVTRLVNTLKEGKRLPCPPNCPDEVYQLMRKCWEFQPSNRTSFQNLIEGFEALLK
Chain of JAK2 (O60674 whole entry): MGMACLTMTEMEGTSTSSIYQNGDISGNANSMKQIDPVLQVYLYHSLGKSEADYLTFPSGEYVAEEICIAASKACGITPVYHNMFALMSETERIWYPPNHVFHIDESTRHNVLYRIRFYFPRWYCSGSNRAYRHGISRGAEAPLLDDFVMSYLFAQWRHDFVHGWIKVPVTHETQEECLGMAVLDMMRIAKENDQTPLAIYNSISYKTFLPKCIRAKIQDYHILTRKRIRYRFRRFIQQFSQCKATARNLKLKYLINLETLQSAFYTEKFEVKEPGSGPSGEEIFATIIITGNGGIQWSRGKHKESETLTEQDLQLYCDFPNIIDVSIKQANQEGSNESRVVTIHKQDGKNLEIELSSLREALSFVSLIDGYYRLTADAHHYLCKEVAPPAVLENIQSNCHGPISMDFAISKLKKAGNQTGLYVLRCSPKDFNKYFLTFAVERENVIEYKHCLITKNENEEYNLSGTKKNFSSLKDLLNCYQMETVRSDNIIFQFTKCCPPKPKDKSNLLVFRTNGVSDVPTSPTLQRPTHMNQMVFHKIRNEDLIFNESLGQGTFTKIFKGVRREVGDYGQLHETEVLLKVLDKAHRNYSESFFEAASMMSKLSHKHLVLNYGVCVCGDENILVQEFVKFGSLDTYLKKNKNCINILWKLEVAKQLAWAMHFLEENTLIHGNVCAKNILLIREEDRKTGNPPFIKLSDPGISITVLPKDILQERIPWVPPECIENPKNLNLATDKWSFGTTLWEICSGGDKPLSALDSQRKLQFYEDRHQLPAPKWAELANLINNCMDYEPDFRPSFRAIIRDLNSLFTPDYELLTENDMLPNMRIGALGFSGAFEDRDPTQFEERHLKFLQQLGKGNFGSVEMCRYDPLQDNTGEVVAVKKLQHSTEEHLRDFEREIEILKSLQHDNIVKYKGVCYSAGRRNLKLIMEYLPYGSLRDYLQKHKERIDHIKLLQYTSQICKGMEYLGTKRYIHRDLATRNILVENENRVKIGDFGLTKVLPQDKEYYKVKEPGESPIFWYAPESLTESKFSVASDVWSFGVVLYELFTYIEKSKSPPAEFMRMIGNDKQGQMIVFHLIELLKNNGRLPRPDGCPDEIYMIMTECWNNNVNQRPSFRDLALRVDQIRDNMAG
Chain of Tyk2 (P29597 whole entry): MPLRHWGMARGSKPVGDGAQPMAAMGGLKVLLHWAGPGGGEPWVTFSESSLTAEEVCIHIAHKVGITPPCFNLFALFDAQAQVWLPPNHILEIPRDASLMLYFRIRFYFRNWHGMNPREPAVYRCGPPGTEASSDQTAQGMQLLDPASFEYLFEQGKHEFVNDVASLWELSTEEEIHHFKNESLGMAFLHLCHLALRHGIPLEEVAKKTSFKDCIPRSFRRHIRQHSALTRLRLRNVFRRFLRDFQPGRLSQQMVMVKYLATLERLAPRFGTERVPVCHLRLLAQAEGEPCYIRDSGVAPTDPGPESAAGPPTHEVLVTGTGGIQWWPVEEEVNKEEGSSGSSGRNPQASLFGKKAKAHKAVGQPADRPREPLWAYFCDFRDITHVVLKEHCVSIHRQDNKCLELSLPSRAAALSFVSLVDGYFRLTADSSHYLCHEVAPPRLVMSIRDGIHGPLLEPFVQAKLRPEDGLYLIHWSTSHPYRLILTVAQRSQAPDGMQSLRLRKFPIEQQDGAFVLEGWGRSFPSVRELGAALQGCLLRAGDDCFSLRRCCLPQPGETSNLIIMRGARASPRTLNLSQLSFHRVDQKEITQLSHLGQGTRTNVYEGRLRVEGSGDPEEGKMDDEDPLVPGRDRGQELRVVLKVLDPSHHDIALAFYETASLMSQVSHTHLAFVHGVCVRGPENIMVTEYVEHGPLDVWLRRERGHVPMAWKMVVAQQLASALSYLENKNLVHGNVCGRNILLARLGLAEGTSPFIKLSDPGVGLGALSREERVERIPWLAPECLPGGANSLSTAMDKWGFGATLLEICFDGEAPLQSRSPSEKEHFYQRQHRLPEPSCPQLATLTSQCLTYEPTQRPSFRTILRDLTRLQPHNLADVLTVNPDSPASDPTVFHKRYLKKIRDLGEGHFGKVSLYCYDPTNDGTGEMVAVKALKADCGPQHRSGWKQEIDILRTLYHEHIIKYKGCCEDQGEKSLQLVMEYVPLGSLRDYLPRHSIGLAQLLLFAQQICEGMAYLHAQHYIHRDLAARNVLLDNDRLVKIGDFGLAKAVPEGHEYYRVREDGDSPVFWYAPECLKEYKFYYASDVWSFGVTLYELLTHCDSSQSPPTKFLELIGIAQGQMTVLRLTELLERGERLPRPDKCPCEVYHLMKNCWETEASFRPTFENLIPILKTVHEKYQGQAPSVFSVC
Chain of JH2 domain of human Tyk2 (P29597 575-876): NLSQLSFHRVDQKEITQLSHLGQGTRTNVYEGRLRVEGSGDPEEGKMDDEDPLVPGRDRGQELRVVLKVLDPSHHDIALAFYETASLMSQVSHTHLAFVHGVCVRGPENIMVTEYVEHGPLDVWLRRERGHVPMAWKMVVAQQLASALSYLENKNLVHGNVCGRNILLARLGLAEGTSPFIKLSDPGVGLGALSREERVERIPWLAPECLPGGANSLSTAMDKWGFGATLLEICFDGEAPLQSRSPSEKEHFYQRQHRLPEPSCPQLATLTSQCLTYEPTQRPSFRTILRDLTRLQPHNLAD

SMILES | IC50 (JH2 domain of human Tyk2; [1]) | IC50 (JAK2; IL-3 stimulation, MSD) | IC50 (Tyk2; MSD) | IC50 (JAK1; IL-6 stimulation, MSD) | IC50 (JH2 domain of human Tyk2; [2]) | IC50 (JAK2; IL-3 stimulated, MSD) | IC50 (JAK1; IL-6 stimulated, MSD) | IC50 (JH2 domain of human Tyk2; [3]) | IC50 (JAK2; IL-3 stimulated) | IC50 (Tyk2) | IC50 (JAK1; IL-6 stimulated)
CC(=O)Nc1cc(Nc2cc(OC3CC3)nc(C(C)(F)F)n2)c(O[C@H]2C[C@@H](F)C2)cn1 [Example 353, N-(4-((6-cyclopropoxy-2-(1,1-difluoroethyl)pyrimidin-4-yl)amino)-5-((1s,3s)-3-fluorocyclobutoxy)pyridin-2-yl)acetamide] | ≤ 10 nM | ≥ 1000 nM | ≤ 10 nM | ≥ 1000 nM |  |  |  |  |  |  | 
CCc1cc(Nc2cc(NC(C)=O)ncc2OCCOC)nc(C(C)(F)F)n1 [Example 20, N-(4-((2-(1,1-difluoroethyl)-6-ethylpyrimidin-4-yl)amino)-5-(2-methoxyethoxy)pyridin-2-yl)acetamide] | ≤ 10 nM | ≥ 1000 nM | ≤ 10 nM | ≥ 1000 nM |  |  |  |  |  |  | 
CC(=O)Nc1cc(Nc2cc(OC3CC3)nc(C(C)(F)F)n2)c(OCC2CCCO2)cn1 (stereo not shown) [Example 139, N-(4-((6-cyclopropoxy-2-(1,1-difluoroethyl)pyrimidin-4-yl)amino)-5-((tetrahydrofuran-2-yl)methoxy)pyridin-2-yl)acetamide] | ≤ 10 nM | ≥ 1000 nM | ≤ 10 nM | ≥ 1000 nM |  |  |  |  |  |  | 
CC(=O)Nc1cc(Nc2cc(C)nc(C(C)(F)F)n2)c(-c2ccc(CN(C)C)cn2)cn1 [Example 648, N-(4′-((2-(1,1-difluoroethyl)-6-methylpyrimidin-4-yl)amino)-5-((dimethylamino)methyl)-[2,3′-bipyridin]-6′-yl)acetamide] |  |  | ≤ 10 nM |  | ≤ 10 nM | ≥ 1000 nM | ≥ 1000 nM |  |  |  | 
COCCOc1cnc(NC(C)=O)cc1Nc1cc(OC2CC2)nc(C(C)(F)F)n1 [Example 298, N-(4-((6-cyclopropoxy-2-(1,1-difluoroethyl)pyrimidin-4-yl)amino)-5-(2-methoxyethoxy)pyridin-2-yl)acetamide] | ≤ 10 nM | ≥ 1000 nM | ≤ 10 nM | ≥ 1000 nM |  |  |  |  |  |  | 
CC(=O)Nc1cc(Nc2cc(C)nc(C(C)(F)F)n2)c(-c2ccn(C)n2)cn1 [Example 218, N-(4-((2-(1,1-difluoroethyl)-6-methylpyrimidin-4-yl)amino)-5-(1-methyl-1H-pyrazol-3-yl)pyridin-2-yl)acetamide] | ≤ 10 nM | ≥ 1000 nM | ≤ 10 nM | ≥ 1000 nM |  |  |  |  |  |  | 
CC(=O)Nc1cc(Nc2ccnc(C(C)(F)F)n2)c(-c2ncc(OC(F)F)cn2)cn1 [Example 825, N-(4-((2-(1,1-difluoroethyl)pyrimidin-4-yl)amino)-5-(5-(difluoromethoxy)pyrimidin-2-yl)pyridin-2-yl)acetamide] |  |  |  |  |  |  |  | ≤ 10 nM | ≥ 1000 nM | 10 to 100 nM | ≥ 1000 nM
CCc1cc(Nc2cc(NC(C)=O)ncc2-c2cnc(COC)cn2)nc(C(C)(F)F)n1 [Example 836, N-(4-((2-(1,1-difluoroethyl)-6-ethylpyrimidin-4-yl)amino)-5-(5-(methoxymethyl)pyrazin-2-yl)pyridin-2-yl)acetamide] |  |  |  |  |  |  |  | ≤ 10 nM | ≥ 1000 nM | ≤ 10 nM | ≥ 1000 nM
CC(=O)Nc1cc(Nc2cc(C)nc(C(C)(F)F)n2)c(-c2cc(C(F)F)ncn2)cn1 [Example 246, N-(4-((2-(1,1-difluoroethyl)-6-methylpyrimidin-4-yl)amino)-5-(6-(difluoromethyl)pyrimidin-4-yl)pyridin-2-yl)acetamide] | ≤ 10 nM | ≥ 1000 nM | 10 to 100 nM | ≥ 1000 nM |  |  |  |  |  |  | 
CCOc1cnc(NC(C)=O)cc1Nc1cc(C)nc(C(C)(F)F)n1 [Example 10, N-(4-((2-(1,1-difluoroethyl)-6-methylpyrimidin-4-yl)amino)-5-ethoxypyridin-2-yl)acetamide] | ≤ 10 nM | ≥ 1000 nM | 10 to 100 nM | ≥ 1000 nM |  |  |  |  |  |  | 
CC(=O)Nc1cc(Nc2cc(C)nc(C(C)(F)F)n2)c(OC[C@H]2C[C@@H]2F)cn1 (racemic) [Example 426, Trans-rac-N-(4-((2-(1,1-difluoroethyl)-6-methylpyrimidin-4-yl)amino)-5-((2-fluorocyclopropyl)methoxy)pyridin-2-yl)acetamide] |  |  | ≤ 10 nM |  | ≤ 10 nM | ≥ 1000 nM | ≥ 1000 nM |  |  |  | 
CCOc1cnc(NC(C)=O)cc1Nc1cc(-c2cnn(C)c2)nc(C(C)(F)F)n1 [Example 302, N-(4-((2-(1,1-difluoroethyl)-6-(1-methyl-1H-pyrazol-4-yl)pyrimidin-4-yl)amino)-5-ethoxypyridin-2-yl)acetamide] | ≤ 10 nM | ≥ 1000 nM | 10 to 100 nM | ≥ 1000 nM |  |  |  |  |  |  | 
CCOc1cnc(NC(C)=O)cc1Nc1ccnc(C(C)(F)F)n1 [Example 4, N-(4-((2-(1,1-difluoroethyl)pyrimidin-4-yl)amino)-5-ethoxypyridin-2-yl)acetamide] | ≤ 10 nM | ≥ 1000 nM | 10 to 100 nM | ≥ 1000 nM |  |  |  |  |  |  | 
[2H]C([2H])([2H])Oc1cnc(NC(C)=O)cc1Nc1cc(C(C)C)nc(C(C)(F)F)n1 [Example 315, N-(4-((2-(1,1-difluoroethyl)-6-isopropylpyrimidin-4-yl)amino)-5-(methoxy-d3)pyridin-2-yl)acetamide] | ≤ 10 nM | ≥ 1000 nM | 10 to 100 nM | ≥ 1000 nM |  |  |  |  |  |  | 
COc1cnc(NC(C)=O)cc1Nc1cc(O[C@H]2C[C@H](OC)C2)nc(C(C)(F)F)n1 [Example 19, N-(4-((2-(1,1-difluoroethyl)-6-((1r,3r)-3-methoxycyclobutoxy)pyrimidin-4-yl)amino)-5-methoxypyridin-2-yl)acetamide] | ≤ 10 nM | ≥ 1000 nM | 10 to 100 nM | ≥ 1000 nM |  |  |  |  |  |  | 
CCOc1cc(Nc2cc(NC(C)=O)ncc2OCCOC)nc(C(C)(F)F)n1 [Example 77, N-(4-((2-(1,1-difluoroethyl)-6-ethoxypyrimidin-4-yl)amino)-5-(2-methoxyethoxy)pyridin-2-yl)acetamide] | ≤ 10 nM | ≥ 1000 nM | ≤ 10 nM | ≥ 1000 nM |  |  |  |  |  |  | 
CCOc1cnc(NC(C)=O)cc1Nc1cc(OCCOC)nc(C(C)(F)F)n1 [Example 32, N-(4-((2-(1,1-difluoroethyl)-6-(2-methoxyethoxy)pyrimidin-4-yl)amino)-5-ethoxypyridin-2-yl)acetamide] | ≤ 10 nM | ≥ 1000 nM | 10 to 100 nM | ≥ 1000 nM |  |  |  |  |  |  | 
CCC(=O)Nc1cc(Nc2cc(CC)nc(C(C)(F)F)n2)c(OCCOC)cn1 [Example 88, N-(4-((2-(1,1-difluoroethyl)-6-ethylpyrimidin-4-yl)amino)-5-(2-methoxyethoxy)pyridin-2-yl)propionamide] | ≤ 10 nM | ≥ 1000 nM | ≤ 10 nM | ≥ 1000 nM |  |  |  |  |  |  | 
CNC(=O)Nc1cc(Nc2cc(C)nc(C(C)(F)F)n2)c(-c2ccn(C)n2)cn1 [Example 289, 1-(4-((2-(1,1-difluoroethyl)-6-methylpyrimidin-4-yl)amino)-5-(1-methyl-1H-pyrazol-3-yl)pyridin-2-yl)-3-methylurea] | ≤ 10 nM | ≥ 1000 nM | ≤ 10 nM | ≥ 1000 nM |  |  |  |  |  |  | 
CC(=O)Nc1cc(Nc2cc(C)nc(C(C)(F)F)n2)c(-c2ccncn2)cn1 [Example 270, N-(4-((2-(1,1-difluoroethyl)-6-methylpyrimidin-4-yl)amino)-5-(pyrimidin-4-yl)pyridin-2-yl)acetamide] | ≤ 10 nM | ≥ 1000 nM | ≤ 10 nM | ≥ 1000 nM |  |  |  |  |  |  | 
CC(=O)Nc1cc(Nc2ccnc(C(C)(F)F)n2)c(-c2nnc(C(C)(C)C)s2)cn1 [Example 715, N-(5-(5-(tert-butyl)-1,3,4-thiadiazol-2-yl)-4-((2-(1,1-difluoroethyl)pyrimidin-4-yl)amino)pyridin-2-yl)acetamide] |  |  | ≤ 10 nM |  | ≤ 10 nM | ≥ 1000 nM | ≥ 1000 nM |  |  |  | 
COc1cnc(NC(C)=O)cc1Nc1cc(C(C)C)nc(C(C)(F)F)n1 [Example 52, N-(4-((2-(1,1-difluoroethyl)-6-isopropylpyrimidin-4-yl)amino)-5-methoxypyridin-2-yl)acetamide] | ≤ 10 nM | ≥ 1000 nM | 10 to 100 nM | ≥ 1000 nM |  |  |  |  |  |  | 
[2H]C([2H])([2H])C([2H])([2H])Oc1cnc(NC(C)=O)cc1Nc1cc(C(C)C)nc(C(C)(F)F)n1 [Example 362, N-(4-((2-(1,1-difluoroethyl)-6-isopropylpyrimidin-4-yl)amino)-5-(ethoxy-d5)pyridin-2-yl)acetamide] | ≤ 10 nM | ≥ 1000 nM | 10 to 100 nM | ≥ 1000 nM |  |  |  |  |  |  | 
CC(=O)Nc1cc(Nc2cc(C)nc(C(C)(F)F)n2)c(OC[C@H]2CCCO2)cn1 (single isomer, unassigned) [Example 294, (R)-N-(4-((2-(1,1-difluoroethyl)-6-methylpyrimidin-4-yl)amino)-5-((tetrahydrofuran-2-yl)methoxy)pyridin-2-yl)acetamide or (S)-N-(4-((2-(1,1-difluoroethyl)-6-methylpyrimidin-4-yl)amino)-5-((tetrahydrofuran-2-yl)methoxy)pyridin-2-yl)acetamide] | ≤ 10 nM | ≥ 1000 nM | ≤ 10 nM | ≥ 1000 nM |  |  |  |  |  |  | 
CC(=O)Nc1cc(Nc2cc(C)nc(C(C)(F)F)n2)c(-c2nc3c(s2)CN(C)CC3)cn1 [Example 238, N-(4-((2-(1,1-difluoroethyl)-6-methylpyrimidin-4-yl)amino)-5-(5-methyl-4,5,6,7-tetrahydrothiazolo[5,4-c]pyridin-2-yl)pyridin-2-yl)acetamide] | ≤ 10 nM | ≥ 1000 nM | ≤ 10 nM | ≥ 1000 nM |  |  |  |  |  |  | 
